Laboratory results reported in US20220331371A1, “DEVELOPMENT OF EMBRYONIC-LIKE TISSUE FROM STEM CELLS” (The Regents of the University of Michigan, priority 2019, published 2022).

Experiments:
[1] = test system: human ES cells co-cultured with Transwell-AMLCs; assay: Transwell co-culture assay of AMLCs and human ES cells; type: cell-based; conditions: 5 μM in Transwell co-culture, 48 h
Description: Immunocytochemistry. hPSCs were fixed in 4% paraformaldehyde (PFA; buffered in 1× PBS) for 12 h, and permeabilized in 0.1% SDS solution (sodium dodecyl sulphate, dissolved in PBS) for another 3 h. Samples were then blocked in 4% donkey serum (Sigma-Aldrich) at 4° C. for 24 h, followed by incubation with primary antibody solutions at 4° C. for another 24 h. Samples were then labelled with donkey-raised secondary antibodies (1:500 dilution) at 4° C. for 24 h, 4,6-diamidino-2-phenylindole (DAPI; Thermo Fisher Scientific) was used for counterstaining cell nuclei. Alexa Fluor dye-conjugated WGA (Thermo Fisher Scientific) and phalloidin (Invitrogen) were used for visualization of cell membrane and actin microfilaments, respectively. Both primary and secondary antibodies were prepared in 4% donkey serum supplemented with 0.1% NaN3. Seventy microlitre antibody solutions were added to each medium reservoir for immunostaining. The asymmetric embryonic-like sac structure was assessed by immunocytochemistry to confirm molecular asymmetry at t=36 h (for P-ELS: co-staining for TFAP2A and T; for A-ELS: co-staining for TFAP2A and NANOG). In situ hybridization. […] For morphogenetic quantification, bright-field or phase-contrast images were acquired using a Zeiss Observer Z1 microscope (Carl Zeiss MicroImaging) equipped with a monochrome CCD camera (AxioCam, Carl Zeiss MicroImaging). […]

[2] = test system: PrePS-EPI-like cells in P-ELS; assay: Posterior primitive streak-like cell development in P-ELS with antagonists in the induction channel; type: cell-based, human
From the text: Cell lines. hPSC lines used in this study include H1 human ES cell (WA01, WiCell; NIH registration number: 0043), H9 human ES cell (WA09, WiCell; NIH registration number: 0062) and 1196a (a human iPSC line from the University of Michigan Pluripotent Stem Cell Core31). All hPSC lines have been authenticated by original sources as well as in-house by immunostaining for pluripotency markers and successful differentiation to the three germ layers. All hPSC lines are maintained in a feeder-free system for at least ten passages and authenticated as karyotypically normal. Karyotype analysis was performed by Cell Line Genetics. All hPSC lines are tested negative for mycoplasma contamination (LookOut Mycoplasma PCR Detection Kit, Sigma-Aldrich). Cell culture. hPSCs were maintained in a standard feeder-free culture system using mTeSR medium (mTeSR; STEMCELL Technologies) or TeSR-E8 medium (Essential 8 or E8; STEMCELL Technologies) and lactate dehydrogenase-elevating virus (LDEV)-free, human ES cell-qualified reduced growth factor basement membrane matrix Geltrex (Thermo Fisher Scientific; derived from Engelbreth-Holm-Swarm tumors similarly to Matrigel). Cell cultures were visually examined during each passage to ensure absence of spontaneously differentiated, mesenchymal-like cells in culture. All hPSCs were used before reaching P70. Device fabrication. The microfluidic device consists of a polydimethylsiloxane (PDMS) structure layer bonded to a coverslip. The PDMS structure layer is made by mixing PDMS curing agent and base polymer (Sylgard 184; Dow Coming) at a ratio of 1:10 before casting PDMS prepolymer onto a microfabricated silicon mold and baking at 110° C. for 40 min. Medium reservoirs (8 mm in diameter) and gel-loading ports (1.2 mm in diameter) were then punched into the PDMS structure layer using Harris Uni-Core punch tools (Ted Pella). After cleaning with ethanol and air plasma activation, the PDMS structure layer was bonded to a coverslip before baking at 80° C. overnight. Before usage, the microfluidic device was sterilized under UV light for 30 min. […]

## Cc1ccc2nc(NC(=O)CSc3nc4c(c(=O)n3-c3ccccc3)SCC4)sc2c1 [IWP2]
[1]
  Differentiation of posterior primitive streak-like cells: inhibited
[2]; IWR1 10 μM or IWP2 5 μM
  Inhibition of induction of MeLC in posteriorized embryonic-like sac: inhibited
[2]; supplemented in the induction channel (IWP2 5 μM, IWR1 10 μM, noggin 50 ng ml^−1), BMP4 in cell-loading channel
  Inhibition of PrePS-EPI-like cell development: completely inhibited
